Data taken from patent US9212151B2, “Heterocyclic compounds useful for kinase inhibition” (Amitech Therapeutic Solutions, Inc., priority 2010, dated 2015).

Experiments:
Tumor cells (A549) = assay: MTT cell viability assay, compounds at 5, 1 and 0.2 μM, 48 hours; type: cell-based
Method in brief: (§1)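 A549 cells were seeded at 2500/well in DMEM + 10% FBS, grown overnight, then exposed to compound for 48 h. Viability was read by MTT (5 mg/ml, 4 h), with formazan dissolved in DMSO and absorbance measured at 560/570 nm to give survival rate.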

[1] = as above; type: cell-based; details: human, A549 tumor cells
Method in brief: as §1

Row | SMILES | viability at 48 h, 0.2 µM ([1]; 0.2 μM) [%] | viability at 48 h, 1 µM ([1]; 1 μM) [%] | viability at 48 h, 5 µM ([1]; 5 μM) [%] | also measured
1 | Cc1cc(Oc2cccc(-c3nnc(Nc4cccc(C(F)(F)F)c4)[nH]3)c2)nc(N)n1 [Compound 95] | – | – | – | % Viability A549 (Tumor cells (A549); 0.2 μM): +++ (+++: >70%); % Viability A549 (Tumor cells (A549); 1 μM): +++ (+++: >70%); % Viability A549 (Tumor cells (A549); 5 μM): ++ (++: 50-70%)
2 | CN(C)c1cc(Oc2ccc(-c3nnc(Nc4cccc(C(F)(F)F)c4)[nH]3)cc2)c2ccccc2n1 [Compound 190] | > 70 | > 70 | 50 to 70 | –
3 | NCCSc1nc(N)cc(Oc2ccc(-c3nnc(Nc4cccc(C(F)(F)F)c4)[nH]3)cc2)n1 [Compound 62] | > 70 | > 70 | > 70 | –
4 | C[S+]([O-])c1nc(N)cc(Oc2ccc(-c3nnc(Nc4cccc(C(F)(F)F)c4)[nH]3)cc2)n1 (stereo not drawn) [Compound 63] | > 70 | > 70 | 50 to 70 | –
5 | CSc1nc(N)cc(Oc2ccc(-c3nnc(Nc4cccc(Cl)c4)[nH]3)cc2)n1 [Compound 133] | > 70 | < 50 | < 50 | –
6 | CSc1nc(N)cc(Oc2ccc(-c3nnc(Nc4cccc5c4CCCC5)[nH]3)cc2)n1 [Compound 135] | < 50 | < 50 | < 50 | –
7 | Oc1ccc(Nc2nnc(-c3cccc(C(F)(F)F)c3)[nH]2)cc1 [Compound 181] | > 70 | > 70 | > 70 | –
8 | CSc1nc(N)cc(Oc2ccc(-c3nnc(Nc4ccccc4Cl)[nH]3)cc2)n1 [Compound 140] | > 70 | > 70 | 50 to 70 | –
9 | CC(C)(C)Sc1nc(N)cc(Oc2cccc(-c3nnc(Nc4cccc(C(F)(F)F)c4)[nH]3)c2)n1 [Compound 98] | > 70 | > 70 | > 70 | –
10 | FC(F)(F)c1cccc(Nc2nnc(-c3ccc(Oc4ccncc4)cc3)[nH]2)c1 [Compound 3] | > 70 | 50 to 70 | < 50 | –
11 | Nc1cc(Oc2ccc(-c3nnc(Nc4cccc(C(F)(F)F)c4)[nH]3)cc2)ccn1 [Compound 4] | > 70 | > 70 | 50 to 70 | –
12 | COc1ccc2c(Oc3ccc(Nc4nnc(-c5cccc(Cl)c5)[nH]4)cc3)ccnc2c1 [Compound 198] | – | – | – | viability at 48 h, 0.2 µM ([1]; 0.2 μM compound): > 70%; viability at 48 h, 1 µM ([1]; 1 μM compound): > 70%; viability at 48 h, 5 µM ([1]; 5 μM compound): > 70%
13 | CSc1nc(N)cc(Oc2ccc(-c3nnc(Nc4cccc(C(F)(F)F)c4)s3)cc2)n1 [Compound 44] | > 70 | > 70 | > 70 | –
14 | Cc1cc(Oc2cccc(-c3nnc(Nc4cccc(C(F)(F)F)c4)[nH]3)c2)c2ccccc2n1 [Compound 168] | > 70 | > 70 | 50 to 70 | –
15 | COc1ccc2c(Oc3cccc(-c4nnc(Nc5cccc(C(F)(F)F)c5)o4)c3)ccnc2c1 [Compound 41] | > 70 | > 70 | > 70 | –
16 | COc1cc2ncnc(Oc3cccc(-c4nnc(Nc5cccc(C(F)(F)F)c5)[nH]4)c3)c2cc1OC [Compound 170] | > 70 | > 70 | > 70 | –
